Results on two molecules are retold here after PMC9571290, “Preliminary Structure–Activity Relationship Study of the MMV Pathogen Box Compound MMV675968 (2,4-Diaminoquinazoline) Unveils Novel Inhibitors of Trypanosoma brucei brucei” (Molecules, 2022).

Structures are written as SMILES. Read-outs that look alike come from different tables or passages of the source.

Experiment [1] relates to bloodstream forms of Trypanosoma brucei brucei. The experiment in a line: resazurin-based antitrypanosomal inhibition assay. The conditions noted are these: Trypanosoma brucei. It counts as cell-based.
The subject of experiment [2] is bloodstream form of Trypanosoma brucei brucei. The experiment in a line: parasite-killing kinetics and cidal or static effect. It counts as cell-based. The conditions noted are these: for cidal or static effect after inhibitor removal: IC90 and IC99, removal at 4 h (10) or 24 h (7), subculture in inhibitor-free medium; for time to total inhibition of trypanosome growth: at IC99. As for the experimental part: Thus, they were selected, and their effect at various concentrations was assessed on the proliferation rate of the bloodstream form of Trypanosoma brucei brucei using microscopic cell count. […] After specified exposure time intervals (0, 4, 8, 12, 24, 30, 36, 48, 60, 72 h), the content of each well was harvested and counted on a Neubauer hemacytometer to determine the number of mobile parasites. The obtained values were used to plot the growth curves as parasite density (cells/mL) versus incubation time using GraphPad Prism 8.0 software.
Therefore, the ability of parasites to recover post exposure to inhibitors 10 and 7 was further evaluated. […] After that, the cells were washed three times with fresh complete medium by centrifugation at 2500 rpm for 7 min. Cell pellets were thereafter resuspended in fresh complete culture medium in a 24-well plate and subcultured under the same conditions for 68 h for compound 10 and 48 h for compound 7 to achieve the complete parasite growth pattern. Thereafter, cells were enumerated using the Neubauer cell counter at each time point. The assay was performed in duplicate, and the mean cell counts were plotted […] against time using GraphPad Prism 8.0 to assess the cidal or static effect of inhibitors.

Where [3] appears, read: Table 4, analogs of MMV675968, solid material, read-out: IC50 ± SD T. b. b.
Where [4] appears, read: Table 4, negative log of IC50 in molar, read-out: pIC50 T. b. b. (converted).

With `COc1ccccc1NCc1ccc2nc(N)nc(N)c2c1` [Analog 7, 6-(((2-methoxyphenyl)amino)methyl)quinazoline-2,4-diamine], in experiment [1] (setting [3]), the IC50 amounted to 60 ± 8 nM. Further, the IC50 in experiment [1] (setting [4]) is 60.3 nM. In experiment [2], the “cidal or static effect after inhibitor removal” value was “static effect” and the “time to total inhibition of trypanosome growth” value is at most 24 h.
On to `Nc1nc(N)c2cc(CNc3cc(Cl)ccc3Cl)ccc2n1` [Analog 10, 6-(((2,5-dichlorophenyl)amino)methyl)quinazoline-2,4-diamine], for which, in experiment [1] (setting [3]), the IC50 came to 45 ± 5 nM. In addition, the IC50 in experiment [1] (setting [4]) was 45.7 nM. Moreover, in experiment [2], the “cidal or static effect after inhibitor removal” value is on record as “cidal effect” and the “time to total inhibition of trypanosome growth” value was at most 4 h.
